Measurements: US12697336B2, “RUC-4 formulations” (CeleCor Therapeutics, Inc., priority 2021, dated 2026)

Experiments:
[1] = Example 1 formulation stability test: overnight (~18 hours) storage at −20° C., 5° C. and 20° C., visual observation; format: physicochemical; details: pH 4.75
Protocol: Formulation solutions as described in Table 3 below were prepared and divided in to three equal portions that were stored overnight (~18 hours) at −20° C., 5° C. and 20° C., respectively. The formulations were observed, and the characteristics reported in Table 3 were noted, immediately for RT, immediately upon removing 5° C. formulations from refrigerator, and upon thawing of −20° C. formulations. Clear solutions of Compound (1) were obtained at pH 4.75 at concentrations of ≤17.5 mg/mL.

[2] = Solubility of Compound (1) in acetic acid; format: physicochemical; details: organic solvent or mixture, read-out: Solubility in acetic acid (obtainable solution concentration)
Protocol: In particular, solutions of greater than 300 mg/mL are obtainable.

With NCC(=O)Nc1cncc(-c2nn3c(=O)cc(N4CCNCC4)nc3s2)c1 [Compound (1)] the “Concentration at which clear solutions were obtained” value [1] was ≤ 17500 µg/mL and the solubility [2] was > 300 mg/mL.
